Tests used:
Assay in all cases: relative viability (nuclei count vs DMSO), 5 days (fraction); higher = more cells survive
A-427 = tested on: A-427
In short: (§1)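 Relative viability equals treated-well nuclei counts divided by vehicle-well nuclei counts. Counts came from 4× images of lung cancer cell lines grown in 1536-well plates for 5 days after pin-tool dosing on the day after seeding. Dosing used one drug alone or a fixed anchor-drug dose plus five library-drug doses (not always all listed) in √10 steps, and values are medians of duplicate plates.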

CAL-12T = tested on: CAL-12T
In short: as §1

LK-2 = tested on: LK-2
In short: as §1

NCI-H1623 = tested on: NCI-H1623
In short: as §1

NCI-H1648 = tested on: NCI-H1648
In short: as §1

NCI-H1650 = tested on: NCI-H1650
In short: as §1

NCI-H1734 = tested on: NCI-H1734
In short: as §1

NCI-H2009 = tested on: NCI-H2009
In short: as §1

UMC-11 = tested on: UMC-11
In short: as §1

CCN(CC)CCCCNc1ncc2cc(-c3cc(OC)cc(OC)c3)c(NC(=O)NC(C)(C)C)nc2n1 + Cc1cc(Nc2cc(N3CCN(C)CC3)nc(Sc3ccc(NC(=O)C4CC4)cc3)n2)n[nH]1 [Tozasertib] (partner 0.1 µM)
relative viability (A-427; first compound 0.01 µM): 0.199
relative viability (A-427; first compound 0.03162 µM): 0.206
relative viability (A-427; first compound 0.1 µM): 0.202
relative viability (A-427; first compound 0.3162 µM): 0.174
relative viability (A-427; first compound 1 µM): 0.182
relative viability (CAL-12T; first compound 0.01 µM): 0.28
relative viability (CAL-12T; first compound 0.03162 µM): 0.287
relative viability (CAL-12T; first compound 0.1 µM): 0.368
relative viability (CAL-12T; first compound 0.3162 µM): 0.257
relative viability (CAL-12T; first compound 1 µM): 0.293
relative viability (LK-2; first compound 0.01 µM): 0.168
relative viability (LK-2; first compound 0.03162 µM): 0.196
relative viability (LK-2; first compound 0.1 µM): 0.184
relative viability (LK-2; first compound 0.3162 µM): 0.213
relative viability (LK-2; first compound 1 µM): 0.159
relative viability (NCI-H1623; first compound 0.01 µM): 0.67
relative viability (NCI-H1623; first compound 0.03162 µM): 0.454
relative viability (NCI-H1623; first compound 0.1 µM): 0.43
relative viability (NCI-H1623; first compound 0.3162 µM): 0.513
relative viability (NCI-H1623; first compound 1 µM): 0.416
relative viability (NCI-H1648; first compound 0.01 µM): 0.657
relative viability (NCI-H1648; first compound 0.03162 µM): 0.559
relative viability (NCI-H1648; first compound 0.1 µM): 0.406
relative viability (NCI-H1648; first compound 0.3162 µM): 0.4
relative viability (NCI-H1648; first compound 1 µM): 0.407
relative viability (NCI-H1650; first compound 0.01 µM): 0.362
relative viability (NCI-H1650; first compound 0.03162 µM): 0.305
relative viability (NCI-H1650; first compound 0.1 µM): 0.392
relative viability (NCI-H1650; first compound 0.3162 µM): 0.361
relative viability (NCI-H1650; first compound 1 µM): 0.247
relative viability (NCI-H1734; first compound 0.01 µM): 0.136
relative viability (NCI-H1734; first compound 0.03162 µM): 0.257
relative viability (NCI-H1734; first compound 0.1 µM): 0.3
relative viability (NCI-H1734; first compound 0.3162 µM): 0.244
relative viability (NCI-H1734; first compound 1 µM): 0.243
relative viability (NCI-H2009; first compound 0.01 µM): 0.816
relative viability (NCI-H2009; first compound 0.03162 µM): 0.72
relative viability (NCI-H2009; first compound 0.1 µM): 0.912
relative viability (NCI-H2009; first compound 0.3162 µM): 0.821
relative viability (NCI-H2009; first compound 1 µM): 0.573
relative viability (UMC-11; first compound 0.01 µM): 0.214
relative viability (UMC-11; first compound 0.03162 µM): 0.203
relative viability (UMC-11; first compound 0.1 µM): 0.204
relative viability (UMC-11; first compound 0.3162 µM): 0.195
relative viability (UMC-11; first compound 1 µM): 0.196

O=c1cc(-c2cccc3c2Sc2ccccc2S3)oc(N2CCOCC2)c1 + COc1cccc2cc(-c3nc([C@H]4CC[C@H](C(=O)O)CC4)n4ncnc(N)c34)[nH]c12 [OSI-027] (partner 0.5 µM)
relative viability (A-427; first compound 0.08 µM): 0.48
relative viability (A-427; first compound 0.253 µM): 0.48
relative viability (A-427; first compound 0.8 µM): 0.573
relative viability (A-427; first compound 8 µM): 0.475
relative viability (CAL-12T; first compound 0.08 µM): 0.671
relative viability (CAL-12T; first compound 0.253 µM): 0.709
relative viability (CAL-12T; first compound 0.8 µM): 0.407
relative viability (CAL-12T; first compound 2.53 µM): 0.57
relative viability (CAL-12T; first compound 8 µM): 0.297
relative viability (LK-2; first compound 0.08 µM): 0.174
relative viability (LK-2; first compound 0.253 µM): 0.189
relative viability (LK-2; first compound 0.8 µM): 0.188
relative viability (LK-2; first compound 2.53 µM): 0.175
relative viability (LK-2; first compound 8 µM): 0.176
relative viability (NCI-H1623; first compound 0.08 µM): 0.593
relative viability (NCI-H1623; first compound 0.253 µM): 0.447
relative viability (NCI-H1623; first compound 0.8 µM): 0.346
relative viability (NCI-H1623; first compound 2.53 µM): 0.431
relative viability (NCI-H1623; first compound 8 µM): 0.374
relative viability (NCI-H1648; first compound 0.08 µM): 0.264
relative viability (NCI-H1648; first compound 0.253 µM): 0.257
relative viability (NCI-H1648; first compound 0.8 µM): 0.277
relative viability (NCI-H1648; first compound 2.53 µM): 0.22
relative viability (NCI-H1648; first compound 8 µM): 0.252
relative viability (NCI-H1650; first compound 0.08 µM): 0.615
relative viability (NCI-H1650; first compound 0.253 µM): 0.593
relative viability (NCI-H1650; first compound 0.8 µM): 0.506
relative viability (NCI-H1650; first compound 2.53 µM): 0.521
relative viability (NCI-H1650; first compound 8 µM): 0.561
relative viability (NCI-H1734; first compound 0.08 µM): 0.556
relative viability (NCI-H1734; first compound 0.253 µM): 0.613
relative viability (NCI-H1734; first compound 0.8 µM): 0.611
relative viability (NCI-H1734; first compound 8 µM): 0.61
relative viability (NCI-H2009; first compound 0.08 µM): 0.627
relative viability (NCI-H2009; first compound 0.253 µM): 0.663
relative viability (NCI-H2009; first compound 0.8 µM): 0.734
relative viability (NCI-H2009; first compound 2.53 µM): 0.575
relative viability (NCI-H2009; first compound 8 µM): 0.553
relative viability (UMC-11; first compound 0.08 µM): 0.546
relative viability (UMC-11; first compound 0.253 µM): 0.562
relative viability (UMC-11; first compound 0.8 µM): 0.457
relative viability (UMC-11; first compound 2.53 µM): 0.429
relative viability (UMC-11; first compound 8 µM): 0.514

O=c1cc(N2CCOCC2)oc2c(-c3cccc4c3sc3ccccc34)cccc12 + Cc1cc(Nc2cc(N3CCN(C)CC3)nc(Sc3ccc(NC(=O)C4CC4)cc3)n2)n[nH]1 [Tozasertib] (partner 0.1 µM)
relative viability (A-427; first compound 0.01 µM): 0.232
relative viability (A-427; first compound 0.03162 µM): 0.201
relative viability (A-427; first compound 0.1 µM): 0.212
relative viability (A-427; first compound 0.3162 µM): 0.223
relative viability (A-427; first compound 1 µM): 0.212
relative viability (CAL-12T; first compound 0.01 µM): 0.354
relative viability (CAL-12T; first compound 0.03162 µM): 0.248
relative viability (CAL-12T; first compound 0.1 µM): 0.347
relative viability (CAL-12T; first compound 0.3162 µM): 0.277
relative viability (CAL-12T; first compound 1 µM): 0.288
relative viability (LK-2; first compound 0.01 µM): 0.164
relative viability (LK-2; first compound 0.03162 µM): 0.161
relative viability (LK-2; first compound 0.1 µM): 0.17
relative viability (LK-2; first compound 0.3162 µM): 0.166
relative viability (LK-2; first compound 1 µM): 0.17
relative viability (NCI-H1623; first compound 0.01 µM): 0.472
relative viability (NCI-H1623; first compound 0.03162 µM): 0.4
relative viability (NCI-H1623; first compound 0.1 µM): 0.394
relative viability (NCI-H1623; first compound 0.3162 µM): 0.411
relative viability (NCI-H1623; first compound 1 µM): 0.343
relative viability (NCI-H1648; first compound 0.01 µM): 0.503
relative viability (NCI-H1648; first compound 0.03162 µM): 0.501
relative viability (NCI-H1648; first compound 0.1 µM): 0.547
relative viability (NCI-H1648; first compound 0.3162 µM): 0.621
relative viability (NCI-H1648; first compound 1 µM): 0.504
relative viability (NCI-H1650; first compound 0.01 µM): 0.383
relative viability (NCI-H1650; first compound 0.03162 µM): 0.416
relative viability (NCI-H1650; first compound 0.1 µM): 0.392
relative viability (NCI-H1650; first compound 0.3162 µM): 0.373
relative viability (NCI-H1650; first compound 1 µM): 0.352
relative viability (NCI-H1734; first compound 0.01 µM): 0.236
relative viability (NCI-H1734; first compound 0.03162 µM): 0.264
relative viability (NCI-H1734; first compound 0.1 µM): 0.307
relative viability (NCI-H1734; first compound 0.3162 µM): 0.259
relative viability (NCI-H1734; first compound 1 µM): 0.243
relative viability (NCI-H2009; first compound 0.01 µM): 0.747
relative viability (NCI-H2009; first compound 0.03162 µM): 0.704
relative viability (NCI-H2009; first compound 0.1 µM): 0.8
relative viability (NCI-H2009; first compound 0.3162 µM): 0.708
relative viability (NCI-H2009; first compound 1 µM): 0.708
relative viability (UMC-11; first compound 0.01 µM): 0.194
relative viability (UMC-11; first compound 0.03162 µM): 0.208
relative viability (UMC-11; first compound 0.1 µM): 0.202
relative viability (UMC-11; first compound 0.3162 µM): 0.209
relative viability (UMC-11; first compound 1 µM): 0.202

COc1nc(C)cnc1NS(=O)(=O)c1cccnc1-c1ccc(-c2nnco2)cc1 [Zibotentan] + Cc1cc(Nc2cc(N3CCN(C)CC3)nc(Sc3ccc(NC(=O)C4CC4)cc3)n2)n[nH]1 [Tozasertib] (partner 0.1 µM)
relative viability (A-427; first compound 0.08 µM): 0.232
relative viability (A-427; first compound 0.253 µM): 0.205
relative viability (A-427; first compound 0.8 µM): 0.25
relative viability (A-427; first compound 2.53 µM): 0.258
relative viability (CAL-12T; first compound 0.08 µM): 0.268
relative viability (CAL-12T; first compound 0.253 µM): 0.289
relative viability (CAL-12T; first compound 0.8 µM): 0.351
relative viability (CAL-12T; first compound 2.53 µM): 0.31
relative viability (LK-2; first compound 0.08 µM): 0.148
relative viability (LK-2; first compound 0.253 µM): 0.191
relative viability (LK-2; first compound 0.8 µM): 0.166
relative viability (LK-2; first compound 2.53 µM): 0.198
relative viability (NCI-H1623; first compound 0.08 µM): 0.464
relative viability (NCI-H1623; first compound 0.8 µM): 0.43
relative viability (NCI-H1623; first compound 2.53 µM): 0.427
relative viability (NCI-H1648; first compound 0.08 µM): 0.499
relative viability (NCI-H1648; first compound 0.253 µM): 0.403
relative viability (NCI-H1648; first compound 0.8 µM): 0.47
relative viability (NCI-H1648; first compound 2.53 µM): 0.576
relative viability (NCI-H1650; first compound 0.08 µM): 0.491
relative viability (NCI-H1650; first compound 0.8 µM): 0.487
relative viability (NCI-H1650; first compound 2.53 µM): 0.418
relative viability (NCI-H1734; first compound 0.08 µM): 0.283
relative viability (NCI-H1734; first compound 0.253 µM): 0.253
relative viability (NCI-H1734; first compound 0.8 µM): 0.247
relative viability (NCI-H1734; first compound 2.53 µM): 0.326
relative viability (NCI-H2009; first compound 0.08 µM): 0.769
relative viability (NCI-H2009; first compound 0.253 µM): 0.72
relative viability (NCI-H2009; first compound 0.8 µM): 0.778
relative viability (NCI-H2009; first compound 2.53 µM): 0.756
relative viability (UMC-11; first compound 0.08 µM): 0.23
relative viability (UMC-11; first compound 0.253 µM): 0.204
relative viability (UMC-11; first compound 0.8 µM): 0.201
relative viability (UMC-11; first compound 2.53 µM): 0.203
